Measured values published in US11952382B1, “2-benzo-[3,4-b]quinolino-[b,g]indeno[1,2:3,4]fluoreno-[1,2-d]oxonine-24-flouro-5,11,16,21-tetraone as an antimicrobial compound” (KING FAISAL UNIVERSITY, priority 2023, dated 2024).

How the values were obtained:
Assay type in all cases: cell-based
Details in all cases: after 10, 20, 40 and 60 minutes at all dilutions 1:100, 1:200, 1:400, 1:800
Staphylococcus aureus = assay: Antimicrobial screening by agar dilution, Staphylococcus aureus
Protocol: (§1) The antibacterial properties of the synthesized compound 2-benzo-[3,4-b]quinolino-[b,g]indeno[1′,2′:3,4]fluoreno-[1,2-d]oxonine-24-flouro-5,11,16,21-tetraone were studied by the method of agar dilution. Test solutions of each compound was prepared in concentration of 1% using dimethylformamide as a solvent then they are diluted in physiological solution to obtain the final experimental dilutions 1:100, 1:200, 1:400, 1:800. The effect of these substances are compared with furacillin in a controllable study. The testing microbes used were gram positive bacteria Staphylococcus aureus, gram negative bacteria Pseudomonas aeruginosa and Escherichia coli and Candida albicans fungus. The experiments used for this survey were meat-pentonlu agar (EPA) for cultivation of bacteria and Saburo environment for the fungus. Each experiment used 1 mL of test solution on each plate […]. Two drops of emulsified with microbes feel were added. All experimental samples were taken from the agar after 10, 20, 40, 60 minutes in the environment on the basis of Patrk planted. The bacteria were cultivated at a temperature of 37° C. for 1 day and the mushroom was kept in a thermostat for 2 hours at a temperature of 28° C. Then results were checked.

Escherichia coli = assay: Antimicrobial screening by agar dilution, Escherichia coli
Protocol: as §1

Pseudomonas aeruginosa = assay: Antimicrobial screening by agar dilution, Pseudomonas aeruginosa
Protocol: as §1

Candida albicans = assay: Antimicrobial (antifungal) screening by agar dilution, Candida albicans
Protocol: as §1

Measured: inhibition activity

O=C1Oc2nc3ccc(F)cc3cc2-c2c(c3c4ccccc4c(=O)c3c3c2c(=O)c2ccccc23)C(=O)c2ccccc21 [2-benzo-[3,4-b]quinolino-[b,g]indeno[1′,2′:3,4]fluoreno-[1,2-d]oxonine-24-flouro-5,11,16,21-tetraone]
highest inhibition activity: all assays above
